Target: T1, full length human TPH1 (Homo sapiens, UniProt P17752)
T1 construct: To generate the enzyme, full length human TPH1 is cloned into the plasmid pET20b(+); made in house; host or cells: E. coli
T1 sequence (P17752 1-444): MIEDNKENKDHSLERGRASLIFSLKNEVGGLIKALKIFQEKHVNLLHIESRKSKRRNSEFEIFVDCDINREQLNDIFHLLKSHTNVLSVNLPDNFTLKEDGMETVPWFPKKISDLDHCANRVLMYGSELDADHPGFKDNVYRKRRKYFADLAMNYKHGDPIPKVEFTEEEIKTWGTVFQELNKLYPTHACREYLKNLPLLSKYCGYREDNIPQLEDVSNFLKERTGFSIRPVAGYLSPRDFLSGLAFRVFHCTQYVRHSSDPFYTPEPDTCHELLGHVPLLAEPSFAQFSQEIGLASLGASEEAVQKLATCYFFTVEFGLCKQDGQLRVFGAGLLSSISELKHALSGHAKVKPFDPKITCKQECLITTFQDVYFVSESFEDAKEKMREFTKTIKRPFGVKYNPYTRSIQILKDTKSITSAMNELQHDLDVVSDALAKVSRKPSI
Experiment: Biochemical in vitro assay using fluorescence readout (TPH1 enzyme activity)
Excerpt: Inhibitory activities on tryptophan hydroxylase 1 have been measured for each example compound using the following procedure:
Biochemical In Vitro Assay Using Fluorescence Readout
To generate the enzyme, full length human TPH1 is cloned into the plasmid pET20b(+) (Novagen) and expressed in E. coli. The bacterial cells are ruptured by sonication on ice and the lysate is cleared by centrifugation. The resulting protein in the pellet is re-extracted and TPH1 is purified from the obtained lysate by affinity chromatography using a pterin cosubstrate analog immobilized to the resin of the column. The protein is further purified by size exclusion chromatography to remove protein aggregates. The activity of TPH1 is determined by using a fluorescence assay. The enzyme activity assay is carried out at 15° C. with atmosphere oxygen for the duration of 60 minutes in a volume of 64 μl. The reaction is carried out in a 0.1M Tris-HCl buffer, adjusted to pH 7.6, containing 1 mM DTT, 0.2 mg/ml catalase, 100 μM (±)-6-methyl-5,6,7,8-tetrahydropterine dihydrochloride, 40 μM L-tryptophan, and 40-80 nM of TPH1. The reaction is started by bringing together L-tryptophan with all the other reaction substituents and stopped by quenching with perchloric acid (HClO4). The amount of 5-hydroxy-L-tryptophan produced during the enzymatic reaction is determined by fluorescence readout. Fluorescence, as determined at 540 nm when excited at 300 nm wavelength, increases proportionally to the 5-hydroxy-L-tryptophan formed. Compounds are prepared as 10 mM stock solution in DMSO, then diluted in 384-well plates using DMSO followed by a transfer of the dilutions into the assay plate. Fluorescence is measured for each well and the fluorescence at 540 nm wavelength is compared to the fluorescence of the vehicle in place of compound. Inhibitory activities of example compounds with respect to the TPH1 protein are determined by calculating the IC50 value (the concentration of compound needed to inhibit 50% of the enzyme activity). The calculated IC50 values may fluctuate depending on the daily biochemical assay performance. Fluctuations of this kind are known to those skilled in the art. In the case where IC50 values have been determined several times for the same compound, the mean is given.

[1] = Table 1, mean where determined several times

Compound	IC50 [1] [nM]	IC50 (Table 2) [nM]
O=C(NC1CC1)c1ccc(OCC(=O)N2CCc3nc4n(c3C2c2ccc(Cl)cc2F)CCCC4)c(C2CC2)n1 (stereo not drawn) [Example 1.1.22, 5-(2-(1-(4-chloro-2-fluorophenyl)-3,4,6,7,8,9-hexahydroimidazo[1,2-a:5,4-c′]dipyridin-2(1H)-yl)-2-oxoethoxy)-N,6-dicyclopropylpicolinamide]	10	–
CN(CC(F)(F)F)c1ccc(OCC(=O)N2CCc3nc4n(c3C2c2ccc(Cl)cc2F)CCCC4)c(Cl)n1 (stereo not drawn) [Example 1.1.23, 1-(1-(4-chloro-2-fluorophenyl)-3,4,6,7,8,9-hexahydroimidazo[1,2-a:5,4-c′]dipyridin-2(1H)-yl)-2-((2-chloro-6-(methyl(2,2,2-trifluoroethyl)amino)pyridin-3-yl)oxy)ethan-1-one]	9	–
COCCN(C)c1ccc(OCC(=O)N2CCc3nc4n(c3C2c2ccc(Cl)cc2F)CCCC4)c(Cl)n1 (stereo not drawn) [Example 1.1.24, 1-(1-(4-chloro-2-fluorophenyl)-3,4,6,7,8,9-hexahydroimidazo[1,2-a:5,4-c′]dipyridin-2(1H)-yl)-2-((2-chloro-6-((2-methoxyethyl)(methyl)amino)pyridin-3-yl)oxy)ethan-1-one]	62	–
CN(C)C(=O)c1ccc(OC(C)(C)C(=O)N2CCc3nc4n(c3C2c2ccc(Cl)cc2F)CCCC4)c(Cl)n1 (stereo not drawn) [Example 1.1.25, 6-chloro-5-((1-(1-(4-chloro-2-fluorophenyl)-3,4,6,7,8,9-hexahydroimidazo[1,2-a:5,4-c′]dipyridin-2(1H)-yl)-2-methyl-1-oxopropan-2-yl)oxy)-N,N-dimethylpicolinamide]	146	–
CN(C)C(=O)c1ccc(OC2(C(=O)N3CCc4nc5n(c4C3c3ccc(Cl)cc3F)CCCC5)CC2)c(Cl)n1 (stereo not drawn) [Example 1.1.26, 6-chloro-5-(1-(1-(4-chloro-2-fluorophenyl)-1,2,3,4,6,7,8,9-octahydroimidazo[1,2-a:5,4-c′]dipyridine-2-carbonyl)cyclopropoxy)-N,N-dimethylpicolinamide]	51	–
CN(CCO)c1ccc(OCC(=O)N2CCc3nc4n(c3C2c2ccc(Cl)cc2F)CCCC4)c(Cl)n1 (stereo not drawn) [Example 1.1.27]	–	15
CS(=O)(=O)c1ccc(OCC(=O)N2CCc3nc4n(c3C2c2ccc(Cl)cc2F)CCCC4)c(Cl)n1 (stereo not drawn) [Example 1.1.28, 1-(1-(4-chloro-2-fluorophenyl)-3,4,6,7,8,9-hexahydroimidazo[1,2-a:5,4-c′]dipyridin-2(1H)-yl)-2-((2-chloro-6-(methylsulfonyl)pyridin-3-yl)oxy)ethan-1-one]	90	–
CN(C)S(=O)(=O)c1ccc(OCC(=O)N2CCc3nc4n(c3C2c2ccc(Cl)cc2F)CCCC4)c(Cl)n1 (stereo not drawn) [Example 1.1.29, 6-chloro-5-(2-(1-(4-chloro-2-fluorophenyl)-3,4,6,7,8,9-hexahydroimidazo[1,2-a:5,4-c′]dipyridin-2(1H)-yl)-2-oxoethoxy)-N,N-dimethylpyridine-2-sulfonamide]	129	–
Cc1ccc(C2c3c(nc4n3CCCC4)CCN2C(=O)COc2ccc(NS(C)(=O)=O)nc2Cl)c(F)c1 (stereo not drawn) [Example 1.2.1, N-(6-chloro-5-(2-(1-(2-fluoro-4-methylphenyl)-3,4,6,7,8,9-hexahydroimidazo[1,2-a:5,4-c′]dipyridin-2(1H)-yl)-2-oxoethoxy)pyridin-2-yl)methanesulfonamide]	41	–
Cc1ccc(C2c3c(nc4n3CCCC4)CCN2C(=O)COc2ccc(-c3ncco3)nc2Cl)c(F)c1 (stereo not drawn) [Example 1.2.2, 2-((2-chloro-6-(oxazol-2-yl)pyridin-3-yl)oxy)-1-(1-(2-fluoro-4-methylphenyl)-3,4,6,7,8,9-hexahydroimi-dazo[1,2-a:5,4-c′]dipyridin-2(1H)-yl)ethanone]	11	–
Cc1ccc(C2c3c(nc4n3CCCC4)CCN2C(=O)COc2ccc(C(=O)N(C)C3CC3)nc2Cl)c(F)c1 (stereo not drawn) [Example 1.2.3, 6-chloro-N-cyclopropyl-5-(2-(1-(2-fluoro-4-methyl-phenyl)-3,4,6,7,8,9-hexahydroimidazo[1,2-a:5,4-c′]dipyridin-2(1H)-yl)-2-oxoethoxy)-N-methylpicolinamide]	22	–
CS(=O)(=O)Nc1ccc(OCC(=O)N2CCc3nc4n(c3C2c2ncc(C3CC3)cc2F)CCCC4)c(Cl)n1 (stereo not drawn) [Example 1.3.1, N-(6-chloro-5-(2-(1-(5-cyclopropyl-3-fluoropyridin-2-yl)-3,4,6,7,8,9-hexahydroimidazo[1,2-a:5,4-c′]dipyridin-2(1H)-yl)-2-oxoethoxy)pyridin-2-yl)methanesulfonamide]	63	–
CCc1nc(C(=O)NC2CC2)ccc1OCC(=O)N1CCc2nc3n(c2C1c1ncc(C2CC2)cc1F)CCCC3 (stereo not drawn) [Example 1.3.2, N-cyclopropyl-5-(2-(1-(5-cyclopropyl-3-fluoropyridin-2-yl)-3,4,6,7,8,9-hexahydroimidazo[1,2-a:5,4-c′]dipyridin-2(1H)-yl)-2-oxoethoxy)-6-ethylpicolinamide]	7	–
CCc1nc(C(=O)NC2CC2)ccc1OCC(=O)N1CCc2nc3n(c2[C@@H]1c1ncc(C2CC2)cc1F)CCCC3 [Example 1.3.3, (R)-N-cyclopropyl-5-(2-(1-(5-cyclopropyl-3-fluoropyridin-2-yl)-3,4,6,7,8,9-hexahydroimidazo[1,2-a:5,4-c′]dipyridin-2(1H)-yl)-2-oxoethoxy)-6-ethylpicolinamide]	7	–
CN(C)C(=O)c1ccc(OCC(=O)N2CCc3nc4n(c3C2c2sc(C(=O)N(C)C)cc2F)CCCC4)c(Cl)n1 (stereo not drawn) [Example 1.4.1, 6-chloro-5-(2-(1-(5-(dimethylcarbamoyl)-3-fluoro-thiophen-2-yl)-3,4,6,7,8,9-hexahydroimidazo[1,2-a:5,4-c′]dipyridin-2(1H)-yl)-2-oxoethoxy)-N,N-dimethyl-picolinamide]	55	–
CCc1nc(NS(C)(=O)=O)ccc1OCC(=O)N1CCc2nc3n(c2C1c1sc(C(=O)N(C)C)cc1F)CCCC3 (stereo not drawn) [Example 1.4.2, 5-(2-(2-((2-ethyl-6-(methylsulfonamido)pyridin-3-yl)oxy)acetyl)-1,2,3,4,6,7,8,9-octahydroimidazo[1,2-a:5,4-c′]dipyridin-1-yl)-4-fluoro-N,N-dimethylthiophene-2-carboxamide]	38	–
CCOC(=O)c1csc(C2c3c(nc4n3CCCC4)CCN2C(=O)COc2ccc(NS(C)(=O)=O)nc2Cl)n1 (stereo not drawn) [Example 1.5.1, Ethyl 2-(2-(2-((2-chloro-6-(methylsulfonamido)pyridin-3-yl)oxy)acetyl)-1,2,3,4,6,7,8,9-octahydroimidazo[1,2-a:5,4-c′]dipyridin-1-yl)thiazole-4-carboxylate]	558	–
Cc1cnc(C2c3c(nc4n3CCCC4)CCN2C(=O)COc2ccc(NS(C)(=O)=O)nc2Cl)c(F)c1 (stereo not drawn) [Example 1.6.1, N-(6-chloro-5-(2-(1-(3-fluoro-5-methylpyridin-2-yl)-3,4,6,7,8,9-hexahydroimidazo[1,2-a:5,4-c′]dipyridin-2(1H)-yl)-2-oxoethoxy)pyridin-2-yl)methanesulfonamide]	58	–
Cc1cnc(C2c3c(nc4n3CCCC4)CCN2C(=O)COc2ccc(-c3ncco3)nc2Cl)c(F)c1 (stereo not drawn) [Example 1.6.2, 2-((2-chloro-6-(oxazol-2-yl)pyridin-3-yl)oxy)-1-(1-(3-fluoro-5-methylpyridin-2-yl)-3,4,6,7,8,9-hexahydroimidazo[1,2-a:5,4-c′]dipyridin-2(1H)-yl)ethanone]	41	–
Cc1cnc(C2c3c(nc4n3CCCC4)CCN2C(=O)COc2ccc(C(=O)N(C)C3CC3)nc2Cl)c(F)c1 (stereo not drawn) [Example 1.6.3, 6-chloro-N-cyclopropyl-5-(2-(1-(3-fluoro-5-methyl-pyridin-2-yl)-3,4,6,7,8,9-hexahydroimidazo[1,2-a:5,4-c′]dipyridin-2(1H)-yl)-2-oxoethoxy)-N-methyl-picolinamide]	114	–
Cc1cnc(C2c3c(nc4n3CCCC4)CCN2C(=O)COc2ccc(C(=O)N(C)C)nc2Cl)c(F)c1 (stereo not drawn) [Example 1.6.4, 6-chloro-5-(2-(1-(3-fluoro-5-methylpyridin-2-yl)-3,4,6,7,8,9-hexahydroimidazo[1,2-a:5,4-c′]dipyridin-2(1H)-yl)-2-oxoethoxy)-N,N-dimethylpicolinamide]	33	–
